According to patent publication US20050159427A1, “N-acylsulfonamide apoptosis promoters” (priority 2003, published 2005):

Legend:
COLO 205 = assay: Tumor cell viability (TABLE 1); assay type: cell-based; settings: Homo sapiens, read-out: EC50 (50% reduction in cell viability); COLO 205 (Colorectal); serum-free conditions, 48 hour treatment; mean ± SEM
HT-29 = assay: Tumor cell viability (TABLE 1); assay type: cell-based; settings: Homo sapiens, read-out: EC50 (50% reduction in cell viability); HT-29 (Colorectal); serum-free conditions, 48 hour treatment; mean ± SEM
NCI-H460 = assay: Tumor cell viability (TABLE 1); assay type: cell-based; settings: Homo sapiens, read-out: EC50 (50% reduction in cell viability); NCI-H460 (Non-Small Cell Lung); serum-free conditions, 48 hour treatment; mean ± SEM
MDA-MB-436 = assay: Tumor cell viability (TABLE 1); assay type: cell-based; settings: Homo sapiens, read-out: EC50 (50% reduction in cell viability); MDA-MB-436 (Breast); serum-free conditions, 48 hour treatment; mean ± SEM
[1] = test system: PC-3 prostate carcinoma cells; assay: Paclitaxel combination on PC-3 cells; assay type: cell-based
SF-539 = assay: Tumor cell viability (TABLE 1); assay type: cell-based; settings: Homo sapiens, read-out: EC50 (50% reduction in cell viability); SF-539 (CNS); serum-free conditions, 48 hour treatment; mean ± SEM
NCI-H226 = assay: Tumor cell viability (TABLE 1); assay type: cell-based; settings: Homo sapiens, read-out: EC50 (50% reduction in cell viability); NCI-H226 (Non-Small Cell Lung); serum-free conditions, 48 hour treatment; mean ± SEM
U87MG = assay: Tumor cell viability (TABLE 1); assay type: cell-based; settings: Homo sapiens, U-87 MG, read-out: EC50 (50% reduction in cell viability); U87MG (Glioma); serum-free conditions, 48 hour treatment; mean ± SEM
HCT-116 = assay: Tumor cell viability (TABLE 1); assay type: cell-based; settings: Homo sapiens, read-out: EC50 (50% reduction in cell viability); HCT-116 (Colorectal); serum-free conditions, 48 hour treatment; mean ± SEM
NCI-H23 = assay: Tumor cell viability (TABLE 1); assay type: cell-based; settings: Homo sapiens, read-out: EC50 (50% reduction in cell viability); NCI-H23 (Non-Small Cell Lung); serum-free conditions, 48 hour treatment; mean ± SEM
KM12 = assay: Tumor cell viability (TABLE 1); assay type: cell-based; settings: Homo sapiens, read-out: EC50 (50% reduction in cell viability); KM12 (Colorectal); serum-free conditions, 48 hour treatment; mean ± SEM
[2] = Combination therapy studies with cytotoxic agents; settings: with etoposide, vincristine, modified CHOP, doxorubicin, rapamycin and Rituxin®
SK-MEL-28 = assay: Tumor cell viability (TABLE 1); assay type: cell-based; settings: Homo sapiens, read-out: EC50 (50% reduction in cell viability); SK-MEL-28 (Melanoma); serum-free conditions, 48 hour treatment; mean ± SEM
IGROV-1 = assay: Tumor cell viability (TABLE 1); assay type: cell-based; settings: Homo sapiens, read-out: EC50 (50% reduction in cell viability); IGROV-1 (Ovarian); serum-free conditions, 48 hour treatment; mean ± SEM
[3] = test system: acute lymphoblastoid leukemia, small cell lung cancer, prostate cancer, non-small cell lung cancer, and follicular lymphoma tumors (RS11380, DoHH2 and SuDHL-4); settings: follicular lymphoma (RS11380, DoHH2, SuDHL-4)
SCLC xenograft = assay: Small cell lung cancer xenograft tumor model; assay type: in vivo, murine
Text: (H146 and SCLC xenograft) from human-derived small cell lung cancer isolated from smokers and nonsmokers, defective for Rb/p53 gene function, and expresseive of moderately high levels of Bcl-2.

OVCAR-5 = assay: Tumor cell viability (TABLE 1); assay type: cell-based; settings: Homo sapiens, read-out: EC50 (50% reduction in cell viability); OVCAR-5 (Ovarian); serum-free conditions, 48 hour treatment; mean ± SEM
SK-MEL-5 = assay: Tumor cell viability (TABLE 1); assay type: cell-based; settings: Homo sapiens, read-out: EC50 (50% reduction in cell viability); SK-MEL-5 (Melanoma); serum-free conditions, 48 hour treatment; mean ± SEM
SN12C = assay: Tumor cell viability (TABLE 1); assay type: cell-based; settings: Homo sapiens, read-out: EC50 (50% reduction in cell viability); SN12C (Renal); serum-free conditions, 48 hour treatment; mean ± SEM
Calu-6 = assay: Tumor cell viability (TABLE 1); assay type: cell-based; settings: Homo sapiens, read-out: EC50 (50% reduction in cell viability); Calu-6 (Non-Small Cell Lung); serum-free conditions, 48 hour treatment; mean ± SEM
MCF7 = assay: Tumor cell viability (TABLE 1); assay type: cell-based; settings: Homo sapiens, read-out: EC50 (50% reduction in cell viability); MCF7 (Breast); serum-free conditions, 48 hour treatment; mean ± SEM
SW-620 = assay: Tumor cell viability (TABLE 1); assay type: cell-based; settings: Homo sapiens, read-out: EC50 (50% reduction in cell viability); SW-620 (Colorectal); serum-free conditions, 48 hour treatment; mean ± SEM
PC3 = PC3 derived murine model of prostate cancer; assay type: in vivo
SF-295 = assay: Tumor cell viability (TABLE 1); assay type: cell-based; settings: Homo sapiens, read-out: EC50 (50% reduction in cell viability); SF-295 (CNS); serum-free conditions, 48 hour treatment; mean ± SEM
SF-268 = assay: Tumor cell viability (TABLE 1); assay type: cell-based; settings: Homo sapiens, read-out: EC50 (50% reduction in cell viability); SF-268 (CNS); serum-free conditions, 48 hour treatment; mean ± SEM
LOX IMVI = assay: Tumor cell viability (TABLE 1); assay type: cell-based; settings: Homo sapiens, read-out: EC50 (50% reduction in cell viability); LOX IMVI (Melanoma); serum-free conditions, 48 hour treatment; mean ± SEM

Structure (SMILES): CN(C)CC[C@H](CSc1ccccc1)Nc1ccc(S(=O)(=O)NC(=O)c2ccc(N3CCN(Cc4ccccc4-c4ccc(Cl)cc4)CC3)cc2)cc1[N+](=O)[O-] [EXAMPLE 2, N-(4-(4-((4′-chloro(1,1′-biphenyl)-2-yl)methyl)piperazin-1-yl)benzoyl)-4-(((1R)-3-(dimethylamino)-1-((phenylsulfanyl)methyl)propyl)amino)-3-nitrobenzenesulfonamide]
- EC50 (COLO 205): 510 ± 70 nM
- EC50 (HT-29): 1100 ± 1100 nM
- EC50 (NCI-H460): 2300 ± 1500 nM
- EC50 (MDA-MB-436): 3.9 ± 2.6 µM
- increase in efficacy of paclitaxel when administered with the compound [1]: 4.7 fold
- EC50 (SF-539): 4.1 ± 0.6 µM
- EC50 (NCI-H226): 2600 ± 1100 nM
- EC50 (U87MG): 2700 ± 1800 nM
- EC50 (HCT-116): 2100 ± 1800 nM
- EC50 (NCI-H23): 7.4 ± 0.6 µM
- EC50 (KM12): 1700 ± 200 nM
- effect on efficacy of cytotoxic agents during combination therapy [2]: synergistically enhanced efficacy
- EC50 (SK-MEL-28): 9.3 ± 0.1 µM
- EC50 (IGROV-1): 1700 ± 600 nM
- therapeutic utility in xenograft models [3]: displayed therapeutic utility
- anti-tumor activity (SCLC xenograft; SCLC xenograft murine model): demonstrated anti-tumor activity
- anti-tumor activity compared with paclitaxel (SCLC xenograft; paclitaxel near the maximum tolerated dose): equivalent to slightly better than paclitaxel
- anti-tumor activity compared with cisplatin and etoposide (SCLC xenograft; small cell lung cancer xenograft tumor model): superior to cisplatin and etoposide
- EC50 (OVCAR-5): 1100 nM
- EC50 (SK-MEL-5): 3.7 ± 0.8 µM
- EC50 (SN12C): 3.2 ± 0.2 µM
- EC50 (Calu-6): 180 ± 70 nM
- EC50 (MCF7): 2000 ± 800 nM
- EC50 (SW-620): 690 ± 70 nM
- inhibition of tumor growth rate (PC3; PC3 derived murine model of prostate cancer): 40-50%
- therapeutic utility in prostate cancer model (PC3; mouse, in vivo): Therapeutic utility was also observed
- EC50 (SF-295): 7.7 ± 2.3 µM
- EC50 (SF-268): 8.3 ± 0.4 µM
- EC50 (LOX IMVI): 1700 ± 400 nM
